For 8 compounds, EC50 results are on record in patent US10947252B2, “Inhibitors of KEAP1-Nrf2 protein-protein interaction” (Janssen Pharmaceutica NV, priority 2018, dated 2021).

What is called EC50 is the concentration needed to bring the measured effect to its halfway point.

The test system of this test is Glo-Response ARE-luc2P HEK293 cell line. The test is described as follows: ARE luciferase reporter cell-based assay.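 Note: luciferase signal tracks Nrf2 activation of the ARE once compounds disrupt KEAP1-Nrf2 binding, read with One-Glo reagent, DMSO serving as low control.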 Particulars: Homo sapiens, HEK293, 24 h, average of results obtained. A general note: A reporter such as luciferase makes a cellular process visible.

Turning to `Cc1ccc([C@H](CC(=O)O)c2ccn3c(C(F)(F)F)nnc3c2C)cc1CN1C[C@@H]2CCCCN2c2nc(C#N)ccc2S1(=O)=O` (relative stereo) [Example 202, (*S)-3-(3-(((*S)-2-Cyano-5,5-dioxido-7,7a,8,9,10,11-hexahydro-6H-dipyrido[2,1-d:2′,3′-f][1,2,5]thiadiazepin-6-yl)methyl)-4-methylphenyl)-3-(8-methyl-3-(trifluoromethyl)-[1,2,4]triazolo[4,3-a]pyridin-7-yl)propanoic Acid], the EC50 is 13 nM.
`CC[C@@H]1CN(Cc2cc([C@H](CC(=O)O)c3ccn4c(C(F)(F)F)nnc4c3C)ccc2C)S(=O)(=O)c2cc(C)cnc2O1` (relative stereo) [Example 194, (*S)-3-(3-(((*R)-4-Ethyl-8-methyl-1,1-dioxido-3,4-dihydro-2H-pyrido[2,3-b][1,4,5]oxathiazepin-2-yl)methyl)-4-methylphenyl)-3-(8-methyl-3-(trifluoromethyl)-[1,2,4]triazolo[4,3-a]pyridin-7-yl)propanoic Acid] displayed an EC50 of 2 nM.
With `Cc1cnc2c(c1)S(=O)(=O)N(Cc1cc([C@H](CC(=O)O)c3ccn4c(C(F)F)nnc4c3C)ccc1C)C[C@@H]1CCCCN21` (stereo in doubt) [Example 500, (*S)-3-(3-(Difluoromethyl)-8-methyl-[1,2,4]triazolo[4,3-a]pyridin-7-yl)-3-(4-methyl-3-(((*S)-3-methyl-5,5-dioxido-7,7a,8,9,10,11-hexahydro-6H-dipyrido[2,1-d:2′,3′-f][1,2,5]thiadiazepin-6-yl)methyl)phenyl)propanoic Acid] the figure was 6.55 nM; with `Cc1cnc2c(c1)S(=O)(=O)N(Cc1cc([C@@H](c3ccn4c(C(F)(F)F)nnc4c3C)C(C)(C)C(=O)O)ccc1C)CC1(CCOCC1)O2` (single isomer, unassigned) [Example 18, (*S)-2,2-Dimethyl-3-(4-methyl-3-((8′-methyl-1′,1′-dioxido-2,3,5,6-tetrahydrospiro[pyran-4,4′-pyrido[2,3-b][1,4,5]oxathiazepin]-2′(3′H)-yl)methyl)phenyl)-3-(8-methyl-3-(trifluoromethyl)-[1,2,4]triazolo[4,3-a]pyridin-7-yl)propanoic Acid], 1.5 nM.
To `Cc1ccc(C(c2ccn3c(C(F)(F)F)nnc3c2C)C(C)(C)C(=O)O)cc1CN1CC2(CCOCC2)Oc2nc(NCCCO)ccc2S1(=O)=O` (centres unmarked) [Example 114] belongs 145 nM; to `Cc1ccc([C@H](CC(=O)O)c2ccn3c(C(F)F)nnc3c2C)cc1CN1C[C@H]2CCCCN2c2ncc(F)cc2S1(=O)=O` (relative stereo) [Example 512, (*S)-3-(3-(Difluoromethyl)-8-methyl-[1,2,4]triazolo[4,3-a]pyridin-7-yl)-3-(3-(((*R)-3-fluoro-5,5-dioxido-7,7a,8,9,10,11-hexahydro-6H-dipyrido[2,1-d:2′,3′-f][1,2,5]thiadiazepin-6-yl)methyl)-4-methylphenyl)propanoic Acid], 3.21 nM.
With `Cc1ccc([C@H](CC(=O)O)c2ccc3c(nnn3CC3CC3)c2C)cc1CN1CC2(CC2)N(C)c2ncccc2S1(=O)=O` (single isomer, unassigned) [Example 78, (*S)-3-(1-(Cyclopropylmethyl)-4-methyl-1H-benzo[d][1,2,3]triazol-5-yl)-3-(4-methyl-3-((5′-methyl-1′,1′-dioxido-5′H-spiro[cyclopropane-1,4′-pyrido[2,3-f][1,2,5]thiadiazepin]-2′(3′H)-yl)methyl)phenyl)propanoic Acid] the figure was 8.9 nM; with `Cc1ccc([C@H](CC(=O)O)c2ccn3c(C(F)(F)F)nnc3c2C)cc1CN1C[C@@H]2CCCCN2c2nc(C(N)=O)ccc2S1(=O)=O` (relative stereo) [Example 203, (*S)-3-(3-(((*S)-2-Carbamoyl-5,5-dioxido-7,7a,8,9,10,11-hexahydro-6H-dipyrido[2,1-d:2′,3′-f][1,2,5]thiadiazepin-6-yl)methyl)-4-methylphenyl)-3-(8-methyl-3-(trifluoromethyl)-[1,2,4]triazolo[4,3-a]pyridin-7-yl)propanoic Acid], 150 nM.
